These results are taken from patent US10144742B2 (Millennium Pharmaceuticals, Inc., priority 2014, dated 2018).

Assay [1] deals with hNAMPT protein (Homo sapiens (Human), UniProt P43490). Kind of assay: NAMPT enzyme assay (TR-FRET/HTRF, BodiPY ligand, anti 6His-Tb). The following applies: for inhibition at 1 µM: NAMPT inhibition at compound concentration 1 μM, read-out: Percent Inhibition; for IC50: NAMPT inhibition, IC50 range class, read-out: IC50. Format: binding. The gist of the method: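 TR-FRET binding assay in which His-tagged human NAMPT with anti-6His-Tb is displaced by compound from a BodiPY ligand, incubated 1 h at rt in the dark. Excitation was at 320 nm, with the 520/486 nm emission ratio read. IC50 was fitted from inhibition relative to DMSO controls.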
For orientation: In TR-FRET formats the signal depends on donor and acceptor labels being close together.

Assay [2] deals with PC3 cells. The experiment in a line: PC3 growth inhibition (Cell-titer glo, 72 hours). The format is cell-based. The settings on record: Homo sapiens, PC-3; compound concentration 1.667 μM; PC3 cells, 72 hours, Cell-titer glo; read-out: Percent Inhibition (PC3 growth inhibition). The gist of the method:
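PC3 cells in RPMI1640 seeded overnight at 37 °C, 5% CO2, then exposed to compound diluted in AIM serum-free medium for 72 h. Viability by CellTiter-Glo luminescence vs DMSO controls; single-concentration % remaining viability (1 μM or 1.667 μM), or GI50/LD50 from curves.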

hNAMPT protein, sequence (P43490 whole entry): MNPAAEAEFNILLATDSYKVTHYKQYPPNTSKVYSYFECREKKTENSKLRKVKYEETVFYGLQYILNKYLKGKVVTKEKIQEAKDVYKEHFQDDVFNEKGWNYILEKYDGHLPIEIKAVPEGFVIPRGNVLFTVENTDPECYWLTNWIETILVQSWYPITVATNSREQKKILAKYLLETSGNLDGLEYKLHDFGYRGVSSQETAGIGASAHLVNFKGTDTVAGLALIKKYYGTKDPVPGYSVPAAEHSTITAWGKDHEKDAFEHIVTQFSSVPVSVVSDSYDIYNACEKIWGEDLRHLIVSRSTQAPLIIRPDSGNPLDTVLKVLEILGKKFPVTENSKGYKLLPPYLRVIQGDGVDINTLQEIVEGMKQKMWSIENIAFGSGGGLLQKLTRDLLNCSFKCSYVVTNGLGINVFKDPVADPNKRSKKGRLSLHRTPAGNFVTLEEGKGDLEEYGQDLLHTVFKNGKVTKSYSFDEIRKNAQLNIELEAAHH

As usually defined, the inhibition is how much of the control response was suppressed. For orientation: IC50 means the concentration that inhibits the measured activity by half. In the case of `O=C(NCCCc1ncc[nH]1)c1ccc2nc(OCc3ccccn3)c(-c3ccc(F)cc3)nc2c1` [Compound I-396, 3-(4-fluorophenyl)-N-[3-(1H-imidazol-2-yl)propyl]-2-(pyridin-2-ylmethoxy)quinoxaline-6-carboxamide], in assay [1], the inhibition at 1 µM came to 98% and the 50% inhibitory concentration (IC50) is < 100 nM. Further, the inhibition at 1.667 µM in assay [2] is 2%.
As for `O=C(NCCCc1ncc[nH]1)c1ccc2nc(-c3ccc(F)cc3)c(-c3ccc(Cl)c(Cl)c3)nc2c1` [Compound I-397, 3-(3,4-dichlorophenyl)-2-(4-fluorophenyl)-N-[3-(1H-imidazol-2-yl)propyl]quinoxaline-6-carboxamide], in assay [1], the inhibition at 1 µM was 97% and the IC50 is < 100 nM. Also, in assay [2], the inhibition at 1.667 µM worked out at 2%.
In the case of `COc1cccc(-c2nc3cc(C(=O)NCCCc4ncc[nH]4)ccc3nc2-c2ccc(F)cc2)c1F` [Compound I-398, 3-(2-fluoro-3-methoxyphenyl)-2-(4-fluorophenyl)-N-[3-(1H-imidazol-2-yl)propyl]quinoxaline-6-carboxamide], in assay [1], the inhibition at 1 µM stood at 93% and the 50% inhibitory concentration (IC50) was < 100 nM. Moreover, in assay [2], the inhibition at 1.667 µM is 2%.
Turning to `O=C(NCCCc1ncc[nH]1)c1ccc2nc(-c3ccc(F)cc3)c(-c3cc(F)ccc3Cl)nc2c1` [Compound I-399, 3-(2-chloro-5-fluorophenyl)-2-(4-fluorophenyl)-N-[3-(1H-imidazol-2-yl)propyl]quinoxaline-6-carboxamide], in assay [1], the inhibition at 1 µM was 95% and the IC50 was < 100 nM. Besides, the inhibition at 1.667 µM in assay [2] was found to be 1%.
Take `O=C(NCCCc1ncc[nH]1)c1ccc2nc(OC3CCCC3)c(-c3ccc(F)cc3)nc2c1` [Compound I-400, 2-(cyclopentyloxy)-3-(4-fluorophenyl)-N-[3-(1H-imidazol-2-yl)propyl]quinoxaline-6-carboxamide]: in assay [1], the inhibition at 1 µM was 97% and the IC50 was < 100 nM. In addition, in assay [2], the inhibition at 1.667 µM was determined as 2%.
Turning to `CS(=O)(=O)CCOc1nc2ccc(C(=O)NCCCc3ncc[nH]3)cc2nc1-c1ccc(F)cc1` [Compound I-401, 3-(4-fluorophenyl)-N-[3-(1H-imidazol-2-yl)propyl]-2-[2-(methylsulfonyl)ethoxy]quinoxaline-6-carboxamide], in assay [1], the inhibition at 1 µM was 69% and the IC50 is 100 to 500 nM. The inhibition at 1.667 µM in assay [2] is 99%.
Regarding `CCOc1nc2ccc(C(=O)NCCCc3ncc[nH]3)cc2nc1-c1ccc(Cl)cc1` [Compound I-402, 3-(4-chlorophenyl)-2-ethoxy-N-[3-(1H-imidazol-2-yl)propyl]quinoxaline-6-carboxamide], in assay [1], the inhibition at 1 µM stood at 97% and the IC50 is < 100 nM. For the same compound, the inhibition at 1.667 µM in assay [2] is 2%.
For the compound `CC(C)Oc1nc2ccc(C(=O)NCc3ccc4nccn4c3)cc2nc1-c1ccc(Cl)s1` [Compound I-403, 3-(5-chloro-2-thienyl)-N-(imidazo[1,2-a]pyridin-6-ylmethyl)-2-isopropoxyquinoxaline-6-carboxamide], in assay [1], the inhibition at 1 µM is 89% and the IC50 is 100 to 500 nM. In addition, in assay [2], the inhibition at 1.667 µM turned out to be 0%.
Regarding `O=C(NCCCc1ncc[nH]1)c1ccc2nc(OC3CC4(CCN4)C3)c(-c3ccc(F)cc3)nc2c1` (stereo not drawn) [Compound I-404, 2-(1-azaspiro[3.3]hept-6-yloxy)-3-(4-fluorophenyl)-N-[3-(1H-imidazol-2-yl)propyl]quinoxaline-6-carboxamide], in assay [1], the inhibition at 1 µM was > 99% and the IC50 is < 100 nM. Besides, in assay [2], the inhibition at 1.667 µM was found to be 1%.
For `O=C(NCCCc1ncc[nH]1)c1ccc2nc(CN3CCOCC3)c(-c3ccc(F)cc3)nc2c1` [Compound I-405, 3-(4-fluorophenyl)-N-[3-(1H-imidazol-2-yl)propyl]-2-(morpholin-4-ylmethyl)quinoxaline-6-carboxamide], in assay [1], the inhibition at 1 µM is 72% and the 50% inhibitory concentration (IC50) lay in the range of 100 to 500 nM. Also, the inhibition at 1.667 µM in assay [2] was found to be 3%.
Regarding `O=C(NCCCc1ncc[nH]1)c1ccc2nc(OCC3CCOCC3)c(-c3ccc(F)cc3)nc2c1` [Compound I-406, 3-(4-fluorophenyl)-N-[3-(1H-imidazol-2-yl)propyl]-2-(tetrahydro-2H-pyran-4-ylmethoxy)quinoxaline-6-carboxamide], in assay [1], the inhibition at 1 µM is > 99% and the concentration for half-maximal inhibition (IC50) was < 100 nM. Besides, the inhibition at 1.667 µM in assay [2] was 2%.
For `N#CC1(COc2nc3ccc(C(=O)NCCCc4ncc[nH]4)cc3nc2-c2ccc(F)cc2)CCC1` [Compound I-407, 2-[(1-cyanocyclobutyl)methoxy]-3-(4-fluorophenyl)-N-[3-(1H-imidazol-2-yl)propyl]quinoxaline-6-carboxamide] the same measures were > 99%, < 100 nM and 2%.
`O=C(NCc1cn2cccnc2n1)c1ccc2nc(-c3ccc(F)cc3)c(-c3ccc(F)cc3)nc2c1` [Compound I-408, 2,3-bis(4-fluorophenyl)-N-(imidazo[1,2-a]pyrimidin-2-ylmethyl)quinoxaline-6-carboxamide]: in assay [1], the inhibition at 1 µM was determined as 85% and the IC50 was in the range of 100 to 500 nM. In assay [2], the inhibition at 1.667 µM was > 99%.
As to `O=C(NCCCc1ncc[nH]1)c1ccc2nc(OCc3cccnc3)c(-c3ccc(F)cc3)nc2c1` [Compound I-409, 3-(4-fluorophenyl)-N-[3-(1H-imidazol-2-yl)propyl]-2-(pyridin-3-ylmethoxy)quinoxaline-6-carboxamide], in assay [1], the inhibition at 1 µM was 98% and the 50% inhibitory concentration (IC50) is < 100 nM. Besides, the inhibition at 1.667 µM in assay [2] turned out to be 2%.
Consider `O=C(NCCCc1ncc[nH]1)c1ccc2nc(-c3ccc(F)cc3)c(-c3cc(Cl)cnc3F)nc2c1` [Compound I-410, 3-(5-chloro-2-fluoropyridin-3-yl)-2-(4-fluorophenyl)-N-[3-(1H-imidazol-2-yl)propyl]quinoxaline-6-carboxamide], for which, in assay [1], the inhibition at 1 µM is 98% and the IC50 was 100 to 500 nM. Besides, the inhibition at 1.667 µM in assay [2] came to 2%.
In the case of `COCC(COC)Oc1nc2ccc(C(=O)NCCCc3ncc[nH]3)cc2nc1-c1ccc(F)cc1` [Compound I-411, 2-[(1,3-dimethoxypropan-2-yl)oxy]-3-(4-fluorophenyl)-N-[3-(1H-imidazol-2-yl)propyl]quinoxaline-6-carboxamide], in assay [1], the inhibition at 1 µM was 97% and the half-inhibitory concentration (IC50) lay within 100 to 500 nM. In assay [2], the inhibition at 1.667 µM was 2%.
As for `O=C(NCCCc1ncc[nH]1)c1ccc2nc(-c3ccc(F)cc3)c(-c3cc4ccccc4s3)nc2c1` [Compound I-412, 3-(1-benzothiophen-2-yl)-2-(4-fluorophenyl)-N-[3-(1H-imidazol-2-yl)propyl]quinoxaline-6-carboxamide], in assay [1], the inhibition at 1 µM is 96% and the half-maximal inhibitory concentration (IC50) was 100 to 500 nM. Moreover, the inhibition at 1.667 µM in assay [2] stood at 6%.
In the same order, the values of `Cc1nccn1-c1nc2ccc(C(=O)NCCCc3ncc[nH]3)cc2nc1-c1ccc(F)cc1` [Compound I-413, 3-(4-fluorophenyl)-N-[3-(1H-imidazol-2-yl)propyl]-2-(2-methyl-1H-imidazol-1-yl)quinoxaline-6-carboxamide] are 80%, 100 to 500 nM and 3%.
